pIC50: −log10 of the molar value.
Legend:
[1] = Binding affinity to human RFC2 expressed in human HeLa R1-11 cells assessed as antiproliferative activity measured as reduction in cell growth after 96 hrs by Cell-Titer Blue assay
[2] = Binding affinity to human PCFT4 expressed in human HeLa R1-11 cells assessed as antiproliferative activity measured as reduction in cell growth after 96 hrs by Cell-Titer Blue assay
[3] = Binding affinity to human RFC expressed in Chinese hamster PC43-10 cells assessed as antiproliferative activity measured as reduction in cell growth after 96 hrs by Cell-Titer Blue assay
[4] = target: Folate receptor alpha (Homo sapiens) (UniProt P15328); assay: Binding affinity to human FRalpha expressed in human HeLa R1-11-FR2 cells assessed as antiproliferative activity measured as reduction in cell growth after 96 hrs by Cell-Titer Blue assay
[5] = Binding affinity to human PCFT expressed in Chinese hamster R2/PCFT4 cells assessed as antiproliferative activity measured as reduction in cell growth after 96 hrs by Cell-Titer Blue assay
[6] = Binding affinity to human FRbeta expressed in Chinese hamster D4 cells assessed as antiproliferative activity measured as reduction in cell growth after 96 hrs by Cell-Titer Blue assay
[7] = Binding affinity to human FRalpha expressed in Chinese hamster RT16 cells assessed as antiproliferative activity measured as reduction in cell growth after 96 hrs by Cell-Titer Blue assay

Sequence of Folate receptor alpha (Homo sapiens) (P15328 whole entry, looked up): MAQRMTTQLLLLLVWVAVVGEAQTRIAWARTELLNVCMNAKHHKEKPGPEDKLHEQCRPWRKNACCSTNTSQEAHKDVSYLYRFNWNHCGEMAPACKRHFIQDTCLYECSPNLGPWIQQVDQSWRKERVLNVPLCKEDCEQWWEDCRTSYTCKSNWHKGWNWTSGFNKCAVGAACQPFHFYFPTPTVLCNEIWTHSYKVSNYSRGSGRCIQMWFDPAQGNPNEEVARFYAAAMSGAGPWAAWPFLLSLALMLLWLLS

| SMILES | pIC50 [1] | pIC50 [2] | pIC50 [3] | pIC50 [4] | pIC50 [5] | pIC50 [6] | pIC50 [7] |
| --- | --- | --- | --- | --- | --- | --- | --- |
| Nc1nc2[nH]c(CCCc3csc(C(=O)N[C@@H](CCC(=O)O)C(=O)O)c3)cc2c(=O)[nH]1 | 7.20 | 7.40 |  |  |  |  |  |
| Nc1nc2[nH]c(CCCc3ccc(C(=O)N[C@@H](CCC(=O)O)C(=O)O)s3)cc2c(=O)[nH]1 | 6.35 |  | 6.97 |  |  |  |  |
| Nc1nc2[nH]c(CCCCc3csc(C(=O)N[C@@H](CCC(=O)O)C(=O)O)c3)cc2c(=O)[nH]1 | < 6.00 | 7.14 | < 6.00 |  |  |  |  |
| Nc1nc2[nH]c(CCCCc3ccc(C(=O)N[C@@H](CCC(=O)O)C(=O)O)nc3)cc2c(=O)[nH]1 | 6.20 | 8.05 | < 6.00 |  |  |  |  |
| Nc1nc2[nH]c(CCCc3ccc(C(=O)N[C@@H](CCC(=O)O)C(=O)O)c(F)c3)cc2c(=O)[nH]1 | 6.29 | 8.26 | 7.21 | 8.28 | 8.42 | 8.41 |  |
| Nc1nc2[nH]c(CCCCc3csc(C(=O)N[C@@H](CCC(=O)O)C(=O)O)c3F)cc2c(=O)[nH]1 | 6.67 | 8.30 | < 6.00 |  | 8.22 |  |  |
| Nc1nc2[nH]c(CCCc3csc(C(=O)N[C@@H](CCC(=O)O)C(=O)O)c3F)cc2c(=O)[nH]1 | 7.18 |  |  | 8.51 | 8.82 | 9.72 | 9.85 |
| Nc1nc2[nH]c(CCCCc3ccc(C(=O)N[C@@H](CCC(=O)O)C(=O)O)cc3F)cc2c(=O)[nH]1 |  |  |  |  | 6.68 | 9.03 | 8.85 |
| Nc1nc2[nH]c(CCCc3ccc(C(=O)N[C@@H](CCC(=O)O)C(=O)O)cc3)cc2c(=O)[nH]1 [(S)-2-(4-(3-(2-amino-4-oxo-4,7-dihydro-3H-pyrrolo[2,3-d]pyrimidin-6-yl)propyl)benzamido)pentanedioic acid] | < 6.00 | 8.01 | 6.52 |  |  |  |  |
| Nc1nc2[nH]c(CCCCc3ccc(C(=O)N[C@@H](CCC(=O)O)C(=O)O)cc3)cc2c(=O)[nH]1 [N-{4-[4-(2-Amino-4-oxo-4,7-dihydro-3H-pyrrolo[2,3-d]pyrimidin-6-yl)butyl]benzoyl}-L-glutamic Acid] | < 6.00 |  | < 6.00 |  |  |  |  |

From BindingDB's records for doi:10.1021/acs.jmedchem.8b00408 (Duquesne University, 2018)
